Test results as given in the NIST ThermoML archive (doi:10.1021/je3013028).
Numbers after ± are expanded uncertainties.

Columns and labels:
[1] = Liquid, Ebulliometric method (Recirculating still)
[2] = refractive index (Na D-line) (dimensionless); conditions: 298.15 K; 101.33 kPa; Liquid; Standard Abbe refractometry

Row | Structure (SMILES) | refractive index [2] | vapor or sublimation pressure ([1]; 336.63 K) [kPa] | vapor or sublimation pressure ([1]; 308.14 K) [kPa] | vapor or sublimation pressure ([1]; 335.63 K) [kPa] | further results
1 | CC(C)(C)S [2-methyl-2-propanethiol] | 1.42 ± 0.00031 |  |  |  | vapor or sublimation pressure ([1]; 336.69 K): 98.5 ± 0.9 kPa
2 | CCCS [1-propanethiol] | 1.4353 ± 0.0003 |  |  |  | 
3 | c1ccsc1 [thiophene] | 1.52869 ± 0.00031 |  | 16.9 ± 0.8 | 49.4 ± 0.8 | 
4 | COC [dimethyl ether] |  | 1572.2 ± 7.7 | 786.6 ± 3.5 | 1540 ± 6.2 | vapor or sublimation pressure ([1]; 336.7 K): 1572.2 ± 7.7 kPa

Continued, in another order:

Row | refractive index [2] | vapor or sublimation pressure ([1]; 336.63 K) [kPa] | vapor or sublimation pressure ([1]; 308.14 K) [kPa] | vapor or sublimation pressure ([1]; 335.63 K) [kPa] | Structure (SMILES) | further results
5 | 1.43998 ± 0.00032 | 39.7 ± 0.8 |  |  | CCSCC [3-thiapentane] | 
6 | 1.3851 ± 0.0003 |  |  |  | C=CCCCC [hex-1-ene] | vapor or sublimation pressure ([1]; 328.15 K): 77 ± 0.5 kPa; vapor or sublimation pressure ([1]; 335.74 K): 98.7 ± 0.6 kPa; vapor or sublimation pressure ([1]; 336.09 K): 99.8 ± 0.6 kPa
